From article PMC6213216, “AbeTx1 Is a Novel Sea Anemone Toxin with a Dual Mechanism of Action on Shaker-Type K^+ Channels Activation” (Marine Drugs, 2018)
Like-named read-outs stand apart in the source and are kept apart here. Positions of bridges follow the written chain, without caps; N, C: chain ends. Residues, ends and D or L forms follow the SMILES beside them.

Tests used:
rKV1.6 = target: T1, rKV1.6 (Rattus norvegicus, UniProt P17659); test: Two-electrode voltage-clamp on Xenopus laevis oocytes expressing rKV1.6; assay type: cell-based
T1 construct: expressed in transfected cells; host or cells: Xenopus laevis oocytes injected with cRNA
Procedure: (§1) The pharmacological effect of AbeTx1 was analyzed by heterologous expression of 12 voltage-gated potassium channels isoforms (rKV1.1, Genbank NM173095; rKV1.2, Genbank NM012970; hKV1.3, Genbank L23499; rKV1.4,Genbank NM012971; rKV1.5, Genbank NM012972; rKV1.6, Genbank NM575671; Shaker IR from Drosophila melanogaster, Genbank CG12348; rKV2.1, Genbank NM013186; hKV3.1, Genbank NM004976; rKV4.2, Genbank NM031730; rKV4.3, Genbank NM031739 and hERG, Genbank NM000238), and three voltage-gated sodium channel subtypes (rNaV1.2, Genbank NM012647; rNaV1.4, Genbank M26643 and BgNaV1.1, from Blattella germanica) (r, rat; h, human) in oocytes from Xenopus laevis. The linearized plasmids were transcribed using a T7 or SP6 mMESSAGE-mMACHINE transcription kit (Life Technologies, Austin, TX, USA). Oocytes were injected with 20–50 nL of cRNA at a concentration of 1 ng·nL^−1 using a microinjector (Drummond Scientific, Broomall, PA, USA). The oocytes were stored for 1–3 days at 16 °C until sufficient expression of voltage-gated ion channels was achieved. Oocytes were maintained in an ND96 solution (in mM: 96 NaCl, 2 KCl, 1.8 CaCl2, 2 MgCl2 and 5 HEPES; pH 7.4), supplemented with 50 µg·mL^−1 gentamicin sulfate.
(§2) Two-electrode voltage-clamp recordings were performed at room temperature (18–22 °C) using a Geneclamp 500 amplifier (Molecular Devices, Sunnyvale, CA, USA) controlled by a pClamp data acquisition system (Axon Instruments, Union City, CA, USA). ND96 was used as bath solution. Whole-cell currents from oocytes were recorded 1–3 days after injection. Voltage and current electrodes were filled with KCl (3 M). The resistance of both electrodes was kept between 0.8–1.0 MΩ. The elicited currents were filtered at 0.5 or 2 kHz using a four-pole low-pass Bessel filter. Leak subtraction was performed using a -P/4 protocol. KV1.1-KV1.6 and Shaker IR currents were evoked by 500 ms depolarization to 0 mV, followed by a 500 ms pulse to −50 mV, from a holding potential of −90 mV. KV2.1, KV3.1, KV4.2, and KV4.3 currents were elicited by 500 ms pulses to + 20 mV from a holding potential of −90 mV. Current traces of hERG channels were elicited by applying a +40 mV pulse for 2.5 s, followed by a step to −120 mV for 2.5 s. Sodium current traces were evoked by 100 ms depolarization steps from a holding potential of −90 mV to 0 mV. Concentration-response curves were constructed by adding different AbeTx1 or analogs concentrations directly to the bath solution. The percentage of the KV blockade was plotted against the logarithm of the applied concentrations and fitted with the Hill Equation (1):y = 100/[1 + (IC50/[toxin]) × h](1) where y is the amplitude of the toxin-induced effect, IC50 is the toxin concentration at half-maximal efficacy, [toxin] is the toxin concentration, and h is the Hill coefficient. To investigate the effects on the voltage dependence of activation, current traces were evoked by 10 mV depolarization steps from a holding potential of −90 mV. Data were normalized to the maximal K^+ current amplitude, plotted against prepulse potential, and fitted using the Boltzmann Equation (2):IK/Imax = [1 + (exp(Vg − V)/k] − 1(2) where Imax represents maximal potassium current (IK), Vg is the voltage corresponding to half-maximal current, and k is the slope factor. Each experimental data represents mean ± standard error of at least three oocytes (n ≥ 3) from different frogs. Effect of the toxin on current-voltage experiments was statistically examined by comparing the control condition and the presence of toxin using the Student’s paired t-test. P-values < 0.05 are considered to be statistically significant. Data were analyzed using Clampfit 10.4 (Molecular Devices, Sunnyvale, CA, USA) and Origin v8.1 software (Origin Lab, Northampton, MA, USA), under the institutional license of the University of São Paulo.

rKV1.1 = target: T2, rKV1.1 (Rattus norvegicus, UniProt P10499); test: Two-electrode voltage-clamp on Xenopus laevis oocytes expressing rKV1.1; assay type: cell-based
T2 construct: expressed in transfected cells; host or cells: Xenopus laevis oocytes injected with cRNA
Procedure: as §1, §2

[1] = concentration-response curve, percentage blocked current fitted with Hill equation, TEVC oocytes, 0 mV from −90 mV, mean ± SE, n ≥ 3, SEM, read-out: KV1.6 IC50
[2] = concentration-response curve, percentage blocked current fitted with Hill equation, TEVC oocytes, 0 mV from −90 mV, mean ± SE, n ≥ 3, SEM, read-out: KV1.1 IC50

T1 sequence (P17659 whole entry): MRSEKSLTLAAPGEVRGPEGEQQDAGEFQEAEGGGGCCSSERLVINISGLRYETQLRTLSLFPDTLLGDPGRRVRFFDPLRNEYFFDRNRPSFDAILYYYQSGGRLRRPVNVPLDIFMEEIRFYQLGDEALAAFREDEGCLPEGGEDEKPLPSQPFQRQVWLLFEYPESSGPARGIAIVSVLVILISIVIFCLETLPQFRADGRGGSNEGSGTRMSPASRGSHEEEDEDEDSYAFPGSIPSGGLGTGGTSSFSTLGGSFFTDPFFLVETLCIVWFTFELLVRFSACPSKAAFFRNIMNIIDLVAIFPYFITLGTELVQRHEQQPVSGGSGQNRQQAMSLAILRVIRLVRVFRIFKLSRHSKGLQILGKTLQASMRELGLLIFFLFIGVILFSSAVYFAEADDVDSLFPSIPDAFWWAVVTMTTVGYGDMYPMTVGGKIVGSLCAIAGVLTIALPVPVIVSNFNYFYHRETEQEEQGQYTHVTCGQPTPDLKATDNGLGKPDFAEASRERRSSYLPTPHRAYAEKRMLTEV
T2 sequence (P10499 whole entry): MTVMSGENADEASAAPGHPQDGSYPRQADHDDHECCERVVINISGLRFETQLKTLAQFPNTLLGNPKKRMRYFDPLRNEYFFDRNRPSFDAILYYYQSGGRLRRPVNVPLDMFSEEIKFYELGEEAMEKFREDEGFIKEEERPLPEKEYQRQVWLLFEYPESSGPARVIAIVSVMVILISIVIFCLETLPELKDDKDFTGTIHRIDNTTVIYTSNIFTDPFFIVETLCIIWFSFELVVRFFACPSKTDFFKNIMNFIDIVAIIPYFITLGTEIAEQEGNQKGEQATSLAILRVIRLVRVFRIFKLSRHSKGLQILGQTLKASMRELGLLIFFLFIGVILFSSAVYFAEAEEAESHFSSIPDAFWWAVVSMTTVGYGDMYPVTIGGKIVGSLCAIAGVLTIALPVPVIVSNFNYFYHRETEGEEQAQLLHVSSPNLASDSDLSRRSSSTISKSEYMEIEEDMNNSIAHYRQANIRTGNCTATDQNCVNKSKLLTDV

Row | Compound | IC50 (rKV1.6; [1]) [µM] | IC50 (rKV1.1; [2]) [µM] | KV1.6 K+ currents reduced to (rKV1.6; 920 μM TEA alone in bath solution) [%] | IC50 (rKV1.6; external TEA in bath solution, concentration stated as IC50, read-out: TEA IC50 on KV1.6) [µM] | KV1.1 current reduced to (rKV1.1; 200 μM TEA alone in bath solution) [%] | IC50 (rKV1.1; external TEA in bath solution, concentration stated as IC50, read-out: TEA IC50 on KV1.1) [µM]
1 | C[C@@H]1NC(=O)[C@@H](NC(=O)[C@@H](N)CCCNC(=N)N)CSSC[C@@H](C(=O)NCC(=O)O)NC(=O)[C@H](CC(N)=O)NC(=O)[C@@H]2CCCN2C(=O)[C@H](CCCCN)NC(=O)[C@@H]2CCCN2C(=O)[C@H](CCCNC(=N)N)NC(=O)[C@@H]2CSSC[C@H](NC(=O)[C@H]([C@@H](C)O)NC1=O)C(=O)N[C@@H](CO)C(=O)N[C@@H](CCCCN)C(=O)NCC(=O)N[C@@H](CCCNC(=N)N)C(=O)N2 [Lys3Ala] (H-RCATCSKGRCRPKPNCG-OH; disulfide 2-16, 5-10) | 18.9 | 27.5 |  |  |  | 
2 | C[C@@H]1NC(=O)[C@H](CO)NC(=O)[C@@H]2CSSC[C@H](NC(=O)[C@H](CCCNC(=N)N)NC(=O)CNC1=O)C(=O)N[C@@H](CCCNC(=N)N)C(=O)N1CCC[C@H]1C(=O)N[C@@H](CCCCN)C(=O)N1CCC[C@H]1C(=O)N[C@@H](CC(N)=O)C(=O)N[C@H](C(=O)NCC(=O)O)CSSC[C@H](NC(=O)[C@@H](N)CCCNC(=N)N)C(=O)N[C@@H](CCCCN)C(=O)N[C@@H]([C@@H](C)O)C(=O)N2 [Lys7Ala] (H-RCKTCSAGRCRPKPNCG-OH; disulfide 2-16, 5-10) | 0.852 ± 0.09 | 17.8 |  |  |  | 
3 | C[C@@H]1NC(=O)[C@@H]2CCCN2C(=O)[C@H](CCCNC(=N)N)NC(=O)[C@@H]2CSSC[C@H](NC(=O)[C@H]([C@@H](C)O)NC(=O)[C@H](CCCCN)NC(=O)[C@@H](NC(=O)[C@@H](N)CCCNC(=N)N)CSSC[C@@H](C(=O)NCC(=O)O)NC(=O)[C@H](CC(N)=O)NC(=O)[C@@H]3CCCN3C1=O)C(=O)N[C@@H](CO)C(=O)N[C@@H](CCCCN)C(=O)NCC(=O)N[C@@H](CCCNC(=N)N)C(=O)N2 [Lys13Ala] (H-RCKTCSKGRCRPAPNCG-OH; disulfide 2-16, 5-10) | 1.08 | 4.55 |  |  |  | 
4 | CC[N+](CC)(CC)CC [TEA, tetraethylammonium, reference compound] |  |  | 51.50 ± 0.65 | 920 | 52.20 ± 1.74 | 200
